This experiment is described as follows: Plaque Reduction Assay: Hep-G2 cells (ECACC, 85011430) were passaged in flasks and seeded in 24-well plates in DMEM containing antibiotics and supplemented with 10% FBS. During inoculation and subsequent incubation, cells were cultured in DMEM containing 2% FBS. 100 plaque forming unit/well of RSV (RSV A2 ECACC, 0709161v) was mixed with eight serial dilutions of compound. Subsequently, 100 μL of the virus/compound mixtures was added to confluent Hep-G2 cell monolayers. The cells and virus/compound mixtures were incubated at 37° C. in a humidified 5% CO2 incubator for 2 h prior to removal of the inoculum and addition of 1 mL of overlay (DMEM containing 2% FBS and 0.8% CMC) containing compound dilutions. The cells and were incubated at 37° C. in a humidified 5% CO2 incubator for 2 days.Cells were washed with PBS before adding 75/25% […] EtOH/MeOH, for 3 min. Fixative was removed and plates were washed with PBS. A pre-titrated amount of the primary antibody was added in 200 μL PBS/2% milk powder, and plates incubated for 90 min at 37° C. The plates were washed 3 times with PBS/0.05% Tween20 before addition of rabbit anti-goat horse radish peroxidase in 200 μL PBS/2% milk powder, and incubated for 1 h at 37° C. Following three wash steps with PBS/0.05% Tween20, 200 μL ready-to-use TrueBlue was added and plates were incubated at rt for 10-15 min before washing with water. After removal of water, plates were air-dried in the dark.Plates were scanned and analysed using the Immunospot S6 Macro analyser, which is equipped with BioSpot analysis software for counting immunostained plaques (virospots). Plaque counts were used to calculate % c infection relative to the mean of the plaque count in the virus control wells for RSV. The EC50 value was calculated as 50% reduction in signal, respectively, by interpolation of inhibition curves fitted with a 4-parameter nonlinear regression with a variable slope in Dotmatics. The note with it: HepG2.
In the case of `O=C(N[C@H]1N=C(c2ccccc2)c2cccc(F)c2NC1=O)c1c(-c2ccccc2)nn2cccnc12`, the concentration giving a half-maximal response (EC50) is 90 nM.

In the case of `Cc1nc(NC(C)C)ccc1-c1nn2cccnc2c1C(=O)N[C@H]1N=C(c2ccccc2)c2cccc(F)c2NC1=O`, the EC50 is 25 nM.

`Cc1nc(NC(C)C)ccc1-c1nn2cccnc2c1C(=O)N[C@H]1N=C(c2ccccc2)c2ccccc2NC1=O`: the EC50 is 41 nM.

Consider `Cc1cc(NC(C)C)ncc1-c1nn2cccnc2c1C(=O)N[C@H]1N=C(c2ccccc2)c2cccc(F)c2NC1=O`, for which the half-maximal effective concentration (EC50) is 74 nM.

With `Cc1ccnc2c(C(=O)N[C@H]3N=C(c4ccccc4)c4cccc(F)c4NC3=O)c(-c3ccccc3F)nn12`, the half-maximal effective concentration (EC50) is 27 nM.

For orientation: EC50 means the concentration at which the effect is half-maximal.

(Values after ChEMBL document CHEMBL5729684, “Pharmaceutical compounds” (2023).)
